# Assay results published in patent publication US20220409629A1, “BENZODIAZEPINE DERIVATIVES FOR TREATING A RESPIRATORY SYNCYTIAL VIRUS (RSV) INFECTION” (priority 2019, published 2022).
# Legend:
# [1] = Liver microsomal stability, human; assay type: in vitro ADME; conditions: pH 7.4; human liver microsomes, 0.5 mg/mL protein, 1 μM compound, NADPH; >80% remaining at 45 min denoted >140; read-out: Liver Microsomal Stability: t1/2 (min); human
# Experimental: (§1) Compounds were subjected to the following assays to investigate liver microsomal stability, permeability and plasma protein binding.
# (§2) Pooled liver microsomes were purchased from a reputable commercial supplier and stored at −80° C. prior to use. Microsomes (final protein concentration 0.5 mg/mL), 0.1 M phosphate buffer pH 7.4 and test compound (final substrate concentration 1 μM; final DMSO concentration 0.25%) were pre-incubated at 37° C. prior to the addition of NADPH (final concentration 1 mM) to initiate the reaction. The final incubation volume was 50 μL. A control incubation was included for each compound tested where 0.1 M phosphate buffer pH 7.4 was added instead of NADPH (minus NADPH). Two control compounds were included with each species. All incubations were performed singularly for each test compound. Each compound was incubated for 0, 5, 15, 30 and 45 min. The control (minus NADPH) was incubated for 45 min only. The reactions were stopped by transferring incubate into acetonitrile at the appropriate time points, in a 1:3 ratio. The termination plates are centrifuged at 3,000 rpm for 20 min at 4° C. to precipitate the protein. Following protein precipitation, the sample supernatants were combined in cassettes of up to 4 compounds, internal standard added, and samples analysed by LC-MS/MS. From a plot of ln peak area ratio (compound peak area/internal standard peak area) against time, the gradient of the line was determined. Subsequently, half-life (t1/2) and intrinsic clearance (CLint) were calculated.
# [2] = Liver microsomal stability, dog; assay type: in vitro ADME; conditions: pH 7.4; dog liver microsomes, 0.5 mg/mL protein, 1 μM compound, NADPH; >80% remaining at 45 min denoted >140; read-out: Liver Microsomal Stability: t1/2 (min); dog
# Experimental: as §1, §2
# [3] = system: RSV A2; assay: RSV plaque reduction assay; assay type: cell-based, respiratory syncytial virus (RSV); conditions: human respiratory syncytial virus, HepG2; Hep-G2 cells, RSV A2, mean of at least two experiments
# Experimental: Compounds were subjected to RSV plaque reduction assays according to the following protocol.
# Hep-G2 cells (ECACC, 85011430) were passaged in flasks and seeded in 24-well plates in DMEM containing antibiotics and supplemented with 10% FBS. During inoculation and subsequent incubation, cells were cultured in DMEM containing 2% FBS. 100 plaque forming unit/well of RSV (RSV A2 ECACC, 0709161v) was mixed with eight serial dilutions of compound. Subsequently, 100 μL of the virus/compound mixtures was added to confluent Hep-G2 cell monolayers. The cells and virus/compound mixtures were incubated at 37° C. in a humidified 5% CO2 incubator for 2 h prior to removal of the inoculum and addition of 1 mL of overlay (DMEM containing 2% FBS and 0.8% CMC) containing compound dilutions. The cells and were incubated at 37° C. in a humidified 5% CO2 incubator for 2 days.
# Cells were washed with PBS before adding 75/25% v/v EtOH/MeOH, for 3 min. Fixative was removed and plates were washed with PBS. A pre-titrated amount of the primary antibody was added in 200 μL PBS/2% milk powder, and plates incubated for 90 min at 37° C. The plates were washed 3 times with PBS/0.05% Tween20 before addition of rabbit anti-goat horse radish peroxidase in 200 μL PBS/2% milk powder, and incubated for 1 h at 37° C. Following three wash steps with PBS/0.05% Tween20, 200 μL ready-to-use TrueBlue was added and plates were incubated at rt for 10-15 min before washing with water. After removal of water, plates were air-dried in the dark.
# Plates were scanned and analysed using the Immunospot S6 Macro analyser, which is equipped with BioSpot analysis software for counting immunostained plaques (virospots). Plaque counts were used to calculate % infection relative to the mean of the plaque count in the virus control wells for RSV. The EC50 value was calculated as 50% reduction in signal, respectively, by interpolation of inhibition curves fitted with a 4-parameter nonlinear regression with a variable slope in Dotmatics. Plaque EC50 and cell toxicity CC50 values are a mean of at least two experiments and figures are rounded to whole units.
# [4] = Liver microsomal stability, rat; assay type: in vitro ADME; conditions: pH 7.4; rat liver microsomes, 0.5 mg/mL protein, 1 μM compound, NADPH; >80% remaining at 45 min denoted >140; read-out: Liver Microsomal Stability: t1/2 (min); rat
# Experimental: as §1, §2
# [5] = Cell cytotoxicity CC50; assay type: cell-based; conditions: human; mean of at least two experiments
SMILES,half-life [1] [min],half-life [2] [min],EC50 [3] [nM],half-life [4] [min],CC50 [5] [nM]
"CCCNc1ccc(-c2nn(CC)cc2C(=O)N[C@H]2N=C(c3ccccc3)c3ccccc3NC2=O)c(F)n1 [Example 27, 1-Ethyl-3-[2-fluoro-6-(propylamino)pyridin-3-yl]-N-[(3S)-2-oxo-5-phenyl-1,3-dihydro-1,4-benzodiazepin-3-yl]pyrazole-4-carboxamide]",43.1,12.6,57,23.9,> 25000
"CCCNc1ccc(-c2nn(CC)cc2C(=O)N[C@H]2N=C(c3ccccc3)c3cccc(F)c3NC2=O)c(F)n1 [Example 28, 1-Ethyl-N-[(3S)-9-fluoro-2-oxo-5-phenyl-1,3-dihydro-1,4-benzodiazepin-3-yl]-3-[2-fluoro-6-(propylamino)pyridin-3-yl]pyrazole-4-carboxamide]",41,30.8,39,22.7,> 25000
"CC(C)(C)n1cc(C(=O)N[C@H]2N=C(c3ccccc3)c3ccccc3NC2=O)c(-c2ccc(NC3CC3)nc2F)n1 [Example 29, 1-tert-butyl-3-[6-(cyclopropylamino)-2-fluoropyridin-3-yl]-N-[(3S)-2-oxo-5-phenyl-1,3-dihydro-1,4-benzodiazepin-3-yl]pyrazole-4-carboxamide]",73.9,44,54,45.2,> 25000
"O=C(N[C@H]1N=C(c2ccccc2)c2ccccc2NC1=O)c1cn(C2CCOCC2)nc1-c1ccc(NC2CC2)nc1F [Example 31, 3-[6-(Cyclopropylamino)-2-fluoropyridin-3-yl]-1-(oxan-4-yl)-N-[(3S)-2-oxo-5-phenyl-1,3-dihydro-1,4-benzodiazepin-3-yl]pyrazole-4-carboxamide]",116,65.7,55,36.3,> 25000
"O=C(N[C@H]1N=C(c2ccccc2)c2cccc(F)c2NC1=O)c1cn(CC(F)(F)F)nc1-c1ccc(NC2CC2)nc1F [Example 33, 3-[6-(Cyclopropylamino)-2-fluoropyridin-3-yl]-N-[(3S)-9-fluoro-2-oxo-5-phenyl-2,3-dihydro-1H-1,4-benzodiazepin-3-yl]-1-(2,2,2-trifluoroethyl)-1H-pyrazole-4-carboxamide]",80.3,81,80,56,> 25000
"O=C(N[C@H]1N=C(c2ccccc2)c2ccccc2NC1=O)c1cn(C2CCC(F)(F)CC2)nc1-c1ccc(NC2CC2)nc1F [Example 34, 3-[6-(Cyclopropylamino)-2-fluoropyridin-3-yl]-1-(4,4-difluorocyclohexyl)-N-[(3S)-2-oxo-5-phenyl-1,3-dihydro-1,4-benzodiazepin-3-yl]pyrazole-4-carboxamide]",119,85.8,96,121,> 25000
"O=C(N[C@H]1N=C(c2ccccc2)c2cccc(F)c2NC1=O)c1cn(C2CCC(F)(F)CC2)nc1-c1ccc(NC2CC2)nc1F [Example 35, 3-[6-(Cyclopropylamino)-2-fluoropyridin-3-yl]-1-(4,4-difluorocyclohexyl)-N-[(3S)-9-fluoro-2-oxo-5-phenyl-1,3-dihydro-1,4-benzodiazepin-3-yl]pyrazole-4-carboxamide]",164,90.9,60,181,> 25000
"CCn1ncc(C(=O)N[C@H]2N=C(c3ccccc3)c3ccccc3NC2=O)c1-c1ncc(NC)cc1F [Example 38, 1-Ethyl-5-(3-fluoro-5-(methylamino)pyridin-2-yl)-N—((S)-2-oxo-5-phenyl-2,3-dihydro-1H-benzo[e][1,4]diazepin-3-yl)-1H-pyrazole-4-carboxamide]",35.2,48.6,105,42,> 25000
"CCNc1cnc(-c2c(C(=O)N[C@H]3N=C(c4ccccc4)c4ccccc4NC3=O)cnn2CC)c(F)c1 [Example 39, 1-Ethyl-5-[5-(ethylamino)-3-fluoropyridin-2-yl]-N-[(3S)-2-oxo-5-phenyl-1,3-dihydro-1,4-benzodiazepin-3-yl]pyrazole-4-carboxamide]",62,45.7,62,21.4,> 25000
"CCNc1ccc(-c2c(C(=O)N[C@H]3N=C(c4ccccc4)c4cccc(F)c4NC3=O)cnn2C2COC2)c(F)n1 [Example 40, 5-[6-(Ethylamino)-2-fluoropyridin-3-yl]-N-[(3S)-9-fluoro-2-oxo-5-phenyl-1,3-dihydro-1,4-benzodiazepin-3-yl]-1-(oxetan-3-yl)pyrazole-4-carboxamide]",49.6,72.9,67,81.1,> 25000
"O=C(N[C@H]1N=C(c2ccccc2)c2ccccc2NC1=O)c1cnn(C2CCOCC2)c1-c1ccc(C2CC2)cc1F [Example 43, 5-(4-Cyclopropyl-2-fluorophenyl)-1-(oxan-4-yl)-N-[(3S)-2-oxo-5-phenyl-1,3-dihydro-1,4-benzodiazepin-3-yl]pyrazole-4-carboxamide]",170,161,48,44.9,> 25000
"O=C(N[C@H]1N=C(c2ccccc2)c2cccc(F)c2NC1=O)c1cnn(C2CCOCC2)c1-c1ccc(C2CC2)cc1F [Example 44, 5-(4-Cyclopropyl-2-fluorophenyl)-N-[(3S)-9-fluoro-2-oxo-5-phenyl-1,3-dihydro-1,4-benzodiazepin-3-yl]-1-(oxan-4-yl)pyrazole-4-carboxamide]",201,90,48,55.9,> 25000
"CCc1ccc(-c2c(C(=O)N[C@H]3N=C(c4ccccc4)c4cccc(F)c4NC3=O)cnn2C2CCOCC2)c(F)c1 [Example 47, 5-(4-Ethyl-2-fluorophenyl)-1-(oxan-4-yl)-N-[(3S)-9-fluoro-2-oxo-5-phenyl-1,3-dihydro-1,4-benzodiazepin-3-yl]pyrazole-4-carboxamide]",105,81.4,30,33.1,> 25000
"CCn1ncc(C(=O)N[C@H]2N=C(c3ccccc3)c3cccc(F)c3NC2=O)c1-c1cc(C2CC2)cnc1F [Example 48, 5-(5-Cyclopropyl-2-fluoropyridin-3-yl)-1-ethyl-N-[(3S)-9-fluoro-2-oxo-5-phenyl-1,3-dihydro-1,4-benzodiazepin-3-yl]pyrazole-4-carboxamide]",355,> 140,92,118,> 25000
"O=C(N[C@H]1N=C(c2ccccc2)c2cccc(F)c2NC1=O)c1cnn(C2CCOCC2)c1-c1ccc(C2CC2)nc1F [Example 49, 5-(6-Cyclopropyl-2-fluoropyridin-3-yl)-N-[(3S)-9-fluoro-2-oxo-5-phenyl-1,3-dihydro-1,4-benzodiazepin-3-yl]-1-(oxan-4-yl)pyrazole-4-carboxamide]",181,110,100,73.4,> 25000
